Measurements from patent publication US8883502B2, “Expandable cell source of neuronal stem cell populations and methods for obtaining and using them” (The Regents of the University of California, priority 2010, dated 2014).

Tests used:
GSK3β = GSK3β (Homo sapiens, UniProt P49841); conditions: cited from earlier work
gamma secretase = conditions: read-out: IC50, gamma secretase inhibitor; cited from earlier work
pNSCs = test: pNSC self-renewal, clonogenicity and culture on Matrigel; type: cell-based, human
Procedure: (§1) hESCs (HUES9 and HUES1) at about 20% confluence were treated with 3 μM CHIR99021 (Cellagentech), 2 μM SB431542 (Cellagentech), 0.1 μM Compound E (γ-Secretase Inhibitor XXI, EMD Chemicals Inc.) in neural induction media containing Advanced DMEM/F12:Neurobasal (1:1), 1×N2, 1×B27, 1% Glutmax, 5 μg/mL BSA and 10 ng/mL hLIF (Millipore), for 7 d. The culture was then split 1:3 for the next six passages using Accutase and cultured in neural induction media supplemented with 3 μM CHIR99021 and 2 μM SB431542 on X-ray inactivated MEF feeders or Matrigel-coated plates. After six passages, the cells were split 1:10 regularly. Neural induction of H1 hESCs follows the same protocol, but using 4 μM CHIR99021, 3 μM SB431542, and 0.1 μM compound E in the first 7 d, after which the cells were regularly cultured with neural induction media supplemented with 3 μM CHIR99021 and 2 μM SB431542. During the initial few passages, overnight treatment with the ROCK inhibitor (Y-27632, 5 μM, Cellagentech) was also used to enhance cell survival, but not required in following passages. In the present study, neural induction data were collected under feeder conditions except the FACS analysis of FIG. 6 performed under feeder-free condition. pNSCs were expanded on Matrigel-coated surfaces.
pNSCs can long-term self-renew over serial passages on Matrigel with SBR431542, CHIR, and hLIF. pNSCs generated from HUES9 and H1 hESCs were routinely passaged 1:10 and have been cultured for >30 passages without obviously losing proliferative capacity, which is equivalent to at least 94 population doublings. However, individual omission of hLIF, SB431542, or CHIR from the media compromised pNSCs' long-term self-renewal. Single pNSC is clonogenic on Matrigel in the presence of hLIF/SB431542/CHIR (FIG. 2A). […] Despite their highly proliferative and clonogenic capacity, pNSCs are not tumorigenic in SCID beige mice.

GSK3 = GSK3 inhibitor; cited from earlier work
Notch signaling = Notch signaling inhibitor and gamma secretase inhibitor; cited from earlier work
SAPK2/p38 = SAPK2/p38 (Homo sapiens, UniProt Q16539); conditions: inhibitor of CK1 and ALK5; cited from earlier work
hESCs = test: Neural induction of hESCs (real-time PCR, immunocytochemistry, flow cytometry); type: cell-based, human
Procedure: as §1, with “[…]),” for “CHIR99021 (Cellagentech),”, “([…]),” for “(Cellagentech),”, “Neural induction of H1 hESCs follows the same protocol, but using 4 μM CHIR99021, 3 μM SB431542, and 0.1 μM compound E in the first 7 d, after which the cells were regularly cultured with neural induction media supplemented with 3 μM CHIR99021 and 2 μM SB431542.” left out, “([…])” for “(Y-27632, 5 μM, Cellagentech)”, “surfaces. For immunofluorescence assays, pNSCs were fixed in 4% paraformaldehyde for 10 min. Specifically, 4% paraformaldehyde with 0.15% picric acid was used to fix the neuronal differentiation culture. For immunostaining of GABA antigen, the cells were fixed in 4% paraformaldehyde, 0.15% picric acid and 0.02% Glutaraldehyde. […]” for “surfaces.”

Sequence of SAPK2/p38 (Q16539 whole entry): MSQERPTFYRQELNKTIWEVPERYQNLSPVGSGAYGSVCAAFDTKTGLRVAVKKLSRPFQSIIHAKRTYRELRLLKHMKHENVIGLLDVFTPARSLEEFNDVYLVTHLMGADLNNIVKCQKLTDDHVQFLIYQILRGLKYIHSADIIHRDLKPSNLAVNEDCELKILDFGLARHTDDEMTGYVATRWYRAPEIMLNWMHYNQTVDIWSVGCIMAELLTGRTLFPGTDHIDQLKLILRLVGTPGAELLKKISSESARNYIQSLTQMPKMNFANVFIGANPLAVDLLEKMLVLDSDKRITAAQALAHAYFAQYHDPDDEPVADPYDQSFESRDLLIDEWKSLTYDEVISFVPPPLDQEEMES
Sequence of GSK3β (P49841 whole entry, species assumed): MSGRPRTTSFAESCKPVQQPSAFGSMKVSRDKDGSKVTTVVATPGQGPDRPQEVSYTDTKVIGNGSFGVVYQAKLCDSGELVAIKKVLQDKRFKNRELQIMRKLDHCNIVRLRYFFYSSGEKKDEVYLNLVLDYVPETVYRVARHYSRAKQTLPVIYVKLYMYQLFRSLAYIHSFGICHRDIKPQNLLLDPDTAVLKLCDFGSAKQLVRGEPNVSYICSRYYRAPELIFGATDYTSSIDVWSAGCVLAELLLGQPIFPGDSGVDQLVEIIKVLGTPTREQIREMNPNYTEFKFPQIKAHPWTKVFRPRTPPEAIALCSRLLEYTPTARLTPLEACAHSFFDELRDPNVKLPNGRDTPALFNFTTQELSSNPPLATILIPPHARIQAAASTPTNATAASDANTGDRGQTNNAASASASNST

O=C1NC(=O)C(c2cccc3c2OCO3)N1 (stereo not drawn) [(Z)-5-(2,3-Methylenedioxyphenyl)imidazolidine-2,4-dione]
IC50 (GSK3β): 27 nM

C[C@H](NC(=O)Cc1cc(F)cc(F)c1)C(=O)N[C@H]1N=C(c2ccccc2)c2ccccc2N(C)C1=O [Compound E, (S,S)-2-[2-(3,5-Difluorophenyl)-acetylamino]-N-(1-methyl-2-oxo-5-phenyl-2,3-dihydro-1H-benzo[e][1,4]diazepin-3-yl)-propionamide]
IC50 (gamma secretase): ~0.3 nM
effect on established pNSCs (pNSCs; 48 h treatment): rapidly induced pNSCs to differentiate into Double cortin (DCX)-positive neuronal precursors
colony formation from single pNSC (pNSCs; on Matrigel): no colonies were observed

bFGF: basic fibroblast growth factor, 20 ng/mL in neural induction media
morphology of pNSCs (pNSCs; neural induction media with 20 ng/mL bFGF, 4 d): gained rosette-like structures

CCC[C@H](N[C@H]1CCc2cc(F)cc(F)c2C1)C(=O)Nc1cn(C(C)(C)CNCC(C)(C)C)cn1 [PF-03084014, (S)-2-(((S)-6,8-difluoro-1,2,3,4-tetrahydronaphthalen-2-yl)amino)-N-(1-(2-methyl-1-(neopentylamino)propan-2-yl)-1H-imidazol-4-yl)pentanamide]
IC50 (Notch signaling): 13.3 nM

NC(=O)c1ccc(-c2nc(-c3ccc4c(c3)OCCO4)c(-c3ccccn3)[nH]2)cc1 [D 4476, 4-[4-(2,3-Dihydro-1,4-benzodioxin-6-yl)-5-(2-pyridinyl)-1H-imidazol-2-yl]benzamide]
selectivity over SAPK2/p38 (SAPK2/p38): > 20 fold

B1: Wnt3a: Wnt3a used to replace CHIR in the neural induction protocol (protein, UniProt P56704 19-352, looked up)
Protein Wnt-3a: SYPIWWSLAVGPQYSSLGSQPILCASIPGLVPKQLRFCRNYVEIMPSVAEGIKIGIQECQHQFRGRRWNCTTVHDSLAIFGPVLDKATRESAFVHAIASAGVAFAVTRSCAEGTAAICGCSSRHQGSPGKGWKWGGCSEDIEFGGMVSREFADARENRPDARSAMNRHNNEAGRQAIASHMHLKCKCHGLSGSCEVKTCWWSQPDFRAIGDFLKDKYDSASEMVVEKHRESRGWVETLRPRYTYFKVPTERDLVYYEASPNFCEPNPETGSFGTRDRTCNVSSHGIDGCDLLCCGRGHNARAERRREKCRCVFHWCCYVSCQECTRVYDVHTCK
effect of replacing CHIR in the neural induction protocol (hESCs): induced significant spontaneous differentiation and did not generate a homogenous NSC population
